This passage reports Activity results from ChEMBL document CHEMBL1240518, “Replacement of the Lys linker with an Arg linker resulting in improved melanoma uptake and reduced renal uptake of Tc-99m-labeled Arg-Gly-Asp-conjugated alpha-melanocyte stimulating hormone hybrid peptide” (Bioorg Med Chem, 2010).

Residues, ends and D or L forms follow the SMILES beside them.

This experiment is described as follows: Cytotoxicity against mouse B16-F1 cells assessed as reduction of cell survival after 3 hrs by clonogenic assay relative to control.

With `N=C(N)NCCC[C@@H]1NC(=O)CNC(=O)[C@H](CC(=O)O)NC(=O)[C@H](Cc2ccc(O)cc2)NC(=O)[C@H](CC(=O)O)NC1=O` (cyclo(DGRDY)), the Activity is 7%.
